# Test results: patent publication US20240327429A1, “[1,3]Thiazolo[4,5-d]-pyrimidon-7-ones as inhibitors of NOX4” (Boehringer Ingelheim International GmbH, priority 2023, published 2024)
# What was measured:
# human NOX3 (hNOX3) = biological target: T1, human NOX3 (hNOX3) (Homo sapiens, UniProt Q9HBY0); assay: NOX3 inhibition assay (L-012), HEK293 cells stably overexpressing human NOX3; assay type: cell-based; conditions: HEK293-hNOX3, PMA stimulated
# T1 construct: pLV-CMV-hNOX3-puro (NM_015718.3); host or cells: HEK293 (CLS GmbH), lentiviral transduction
# T1 sequence (Q9HBY0 1-568): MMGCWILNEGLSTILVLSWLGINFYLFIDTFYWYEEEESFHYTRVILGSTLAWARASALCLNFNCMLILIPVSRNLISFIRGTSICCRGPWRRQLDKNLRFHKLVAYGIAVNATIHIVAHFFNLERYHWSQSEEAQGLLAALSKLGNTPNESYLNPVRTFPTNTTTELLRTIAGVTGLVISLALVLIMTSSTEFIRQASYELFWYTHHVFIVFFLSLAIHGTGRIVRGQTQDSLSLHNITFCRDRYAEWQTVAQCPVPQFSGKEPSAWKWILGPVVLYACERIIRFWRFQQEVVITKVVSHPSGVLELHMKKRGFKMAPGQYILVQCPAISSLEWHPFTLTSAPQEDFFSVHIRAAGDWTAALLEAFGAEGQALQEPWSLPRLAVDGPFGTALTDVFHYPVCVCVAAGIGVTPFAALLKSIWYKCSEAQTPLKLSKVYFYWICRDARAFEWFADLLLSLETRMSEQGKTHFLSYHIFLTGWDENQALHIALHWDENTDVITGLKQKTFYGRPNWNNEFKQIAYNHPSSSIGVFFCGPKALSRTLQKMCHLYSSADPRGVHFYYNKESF
# T1 sequence (P13498 2-195 partner limits assumed): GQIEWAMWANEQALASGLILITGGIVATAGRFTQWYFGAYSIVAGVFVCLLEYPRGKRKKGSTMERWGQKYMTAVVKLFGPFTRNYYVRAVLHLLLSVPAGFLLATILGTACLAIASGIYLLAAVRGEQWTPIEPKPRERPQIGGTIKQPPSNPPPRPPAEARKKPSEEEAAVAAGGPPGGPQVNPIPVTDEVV
# Excerpt: Plasmids are Purchased from Vectorbuilder. • for HEK-hNOX1 all necessary subunits are cloned accordingly: • pLV-CMV-hNOX1-puro (NM_007052.5) • pLV-CMV-hNOXO1-blas (NM_172168.3) • pLV-CMV-hp22phox-hygro (NM_000101.4) • pLV-CMV-hNOXA1-neo (NM_006647.2) • for HEK-hNOX3 • pLV-CMV-hNOX3-puro (NM_015718.3)
# 3rd generation lentiviral particles are produced in HEK293 suspension cells by transient transfection of three helper and expression plasmids. Crucial lentivirus supernatants are harvested, clarified by filtration and concentrated by precipitation. Lentivirus titers are determined in transducing units in (TU/mL) by transduction of HT1080 cells and colony forming assay. Parental HEK293 cells, purchased from CLS GmbH, are transduced with replication-incompetent 3rd generation lentiviral particles (MOI 2) and expanded for at least 2 weeks before cryopreservation of tested lots. During cultivation, medium is changed three times per week and cells are sub-cultured at least once per week. Selection antibiotics are added according to the plasmids (1 μg/ml puromycin, 1.5 μg/ml blasticidin, 200 μg/ml G418 and 100 μg/ml hygromycin).
# Evaluation of the NOX4 inhibitors on NOX3 activity is assessed in HEK293 cells stably overexpressing human NOX3 (hNOX3).
# Cells are seeded in 384 well plates for 2 days. […] Cells are then stimulated with PMA at 0.1 μM to induce NOX3-dependent ROS production. […] Luminescence is measured with an PHERAstar multimode reader.
# human NOX4 (hNOX4) = biological target: T2, human NOX4 (hNOX4) (Homo sapiens, UniProt Q9NPH5); assay: cell-based
# T2 sequence (Q9NPH5 1-578): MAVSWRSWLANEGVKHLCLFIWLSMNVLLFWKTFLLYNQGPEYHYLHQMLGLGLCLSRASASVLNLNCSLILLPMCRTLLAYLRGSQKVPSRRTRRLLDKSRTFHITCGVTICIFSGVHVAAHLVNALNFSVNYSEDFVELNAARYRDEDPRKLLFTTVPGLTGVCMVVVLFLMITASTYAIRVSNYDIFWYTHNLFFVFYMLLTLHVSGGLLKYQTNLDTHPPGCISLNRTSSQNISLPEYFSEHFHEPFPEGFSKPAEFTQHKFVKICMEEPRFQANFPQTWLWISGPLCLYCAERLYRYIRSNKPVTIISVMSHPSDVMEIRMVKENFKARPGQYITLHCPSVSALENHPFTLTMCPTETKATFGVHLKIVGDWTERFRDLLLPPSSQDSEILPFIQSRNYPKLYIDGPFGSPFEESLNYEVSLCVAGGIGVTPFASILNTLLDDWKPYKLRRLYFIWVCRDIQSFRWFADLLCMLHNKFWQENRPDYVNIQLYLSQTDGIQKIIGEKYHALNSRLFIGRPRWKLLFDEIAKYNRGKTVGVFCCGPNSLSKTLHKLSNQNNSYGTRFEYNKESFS
# T2 sequence (P13498 2-195 partner limits assumed): T1 sequence (P13498 2-195 partner limits assumed)
# Protocol: The synthetic gene phNOX4_DNA3_1_Zeo (Accession: AAF68973) is assembled from synthetic oligonucleotides and/or PCR products. The fragment is cloned into pcDNA3.1_Zeo_A011 using NheI and XhoI cloning sites. The plasmid DNA is purified from transformed bacteria and its concentration is determined by UV spectroscopy. The final construct is verified by sequencing. The plasmid is transfected via electroporation (Amaxa electroporation device) in combination with Nucleofector Kit V. Selection of NOX4 overexpressing genes is achieved using selection antibiotic Zeocin.
# The inhibitory activity of the example compounds of the invention is determined using the following procedure:
# Cells are cultured in the Dulbecco's Modified Eagle Medium (DMEM) media containing 4.5 g/L glucose supplemented with 10% fetal calf serum and 250 μg/ml Zeocin in an incubator at 37° C. with 5% CO2. For the assay, cells are seeded in 384 well plates.
# After incubation Lumigen HyPerBlu™ is added and cells are incubated for additional 30 min at 24° C. in a humidified incubator. Next, luminescence is measured using an Envision Multimode Plate reader to determine levels of produced H2O2 in the wells.
Compound,IC50 (human NOX3 (hNOX3)) [µM],IC50 (human NOX4 (hNOX4)) [nM]
"O=c1c2scnc2nc(SCc2ccc(Cl)cc2F)n1-c1cc(F)c(O)c(F)c1 [Example 2, 5-((4-Chloro-2-fluorobenzyl)thio)-6-(3,5-difluoro-4-hydroxyphenyl)thiazolo[4,5-d]-pyrimidin-7(6H)-one]",4.1,39
Cc1cc(Cl)ccc1CSc1nc2ncsc2c(=O)n1-c1cc(F)c(O)c(F)c1 [Example 3],> 100,73
Cc1cc(F)cc(C)c1CSc1nc2ncsc2c(=O)n1-c1cc(F)c(O)c(F)c1 [Example 4],4.1,91
O=c1c2scnc2nc(SCc2ccc(Cl)cc2)n1-c1cc(F)c(O)c(F)c1 [Example 5],> 100,24
O=c1c2scnc2nc(SCc2ccc(C(F)(F)F)cc2F)n1-c1cc(F)c(O)c(F)c1 [Example 6],> 100,87
O=c1c2scnc2nc(SCc2ccc(C(F)(F)F)cc2)n1-c1cc(F)c(O)c(F)c1 [Example 7],> 100,77
O=c1c2scnc2nc(SCc2c(F)cc(F)cc2F)n1-c1cc(F)c(O)c(F)c1 [Example 8],2.7,43
Cc1cc(F)ccc1CSc1nc2ncsc2c(=O)n1-c1cc(F)c(O)c(F)c1 [Example 9],3.7,29
"O=c1c2scnc2nc(SCc2c(F)cc(F)cc2F)n1-c1cc(F)c(O)cc1F [Example 10, 6-(2,5-Difluoro-4-hydroxyphenyl)-5-((2,4,6-trifluorobenzyl)thio)thiazolo[4,5-d]pyrimidin-7(6H)-one]",4,27
O=c1c2scnc2nc(SCc2c(F)cc(F)cc2F)n1-c1ccc(O)c(F)c1 [Example 11],16.3,42
O=c1c2scnc2nc(SCc2c(F)cc(F)cc2F)n1-c1ccc(O)c(F)c1F [Example 12],7.6,51
O=c1c2scnc2nc(SCc2c(F)cc(F)cc2F)n1-c1c(F)cc(O)cc1F [Example 13],16,61
O=c1c2scnc2nc(SCc2c(F)cc(F)cc2F)n1-c1ccc(O)cc1F [Example 14],25.5,38
O=c1c2scnc2nc(SCc2c(F)cc(F)cc2F)n1-c1ccc(O)cc1 [Example 15],> 100,33
O=c1c2scnc2nc(SCc2c(F)cc(F)cc2F)n1-c1ccc(O)c(Cl)c1 [Example 16],59.1,367
O=c1c2scnc2nc(SCc2c(F)cc(F)cc2F)n1-c1ccc(O)cc1Cl [Example 17],61.4,314
N#Cc1cc(-n2c(SCc3c(F)cc(F)cc3F)nc3ncsc3c2=O)ccc1O [Example 18],0.4,117
O=c1c2scnc2nc(SCc2c(F)cc(F)cc2F)n1-c1ccc(O)cn1 [Example 19],> 100,
O=c1c2scnc2nc(SCc2c(F)cc(F)cc2F)n1-c1cc(F)c(O)cn1 [Example 20],8.1,127
"O=c1c2scnc2nc(SCc2c(F)cc(F)cc2F)n1-c1ncc(O)cn1 [Example 21, 6-(5-Hydroxypyrimidin-2-yl)-5-((2,4,6-trifluorobenzyl)thio)thiazolo[4,5-d]pyrimidin-7(6H)-one]",> 100,174
"O=c1c2scnc2nc(SCc2ccc(Cl)cc2F)n1-c1ccc(O)nc1 [Example 22, 5-((4-Chloro-2-fluorobenzyl)thio)-6-(6-hydroxypyridin-3-yl)thiazolo[4,5-d]pyrimidin-7(6H)-one]",> 100,69
